In patent US4118482A (priority 1977, dated 1978):
Where two headings read alike, the source gives them in different places. Numbered stars: 1 amine (or outer) side, 2 acyl side, 3 side chain; on linkers, the order of the positions; unused ones are H or OH. Bridge positions count the residues as written; N and C are the ends. Square brackets hold non-standard residues; d marks the D form. Peptide text beside a SMILES is read from it. I, II: the chains in the order shown. Actinocin(9to1) = Cc1c2oc3c(C)ccc(C(=O)[*:1])c3nc-2c(C(=O)[*:2])c(N)c1=O; NMeV = CN[CH](C(=O)O)C(C)C; Aze = O=C(O)[CH]1CCN1; Sar = CNCC(=O)O

Tests used:
[1] = test system: advanced Ridgeway osteogenic sarcoma; details: cited from earlier work
ADVANCED P388 LEUKEMIA = assay: Advanced P388 leukemia in mice, treatment Q4D x 3 at days 5, 9, 13; type: in vivo; details: 0.6 Mg/Kg/Inj., Q4D x 3 days 5, 9, 13, advanced P388
Source text: (§1) The National Cancer Institute conducted a screening test on samples of both Azetomicin I (3' prolyl, 3' azet) and Azetomicin II (3', 3' azet) as well as on Dactinomycin (3', 3' prolyl) that is also known as Actinomycin D or C1. The Azetomicin and Dactinomycin molecules are identical, with the exception of the 3' amino acid position on the peptides, wherein the 3' positions, in the case of Dactinomycin are both prolyl; in the case of the Azetomicin I are prolyl and azetidine-2-carboxyl; and in the cae of Azetomicin II are both azetidine-2-carboxyl.
ADVANCED P388 LEUKEMIA : Q4D × 3 AT DAYS 5, 9, 13 TREATMENT

Rous sarcoma virus = assay: Development of visible tumors in chicks infected with Rous sarcoma virus, single injection; type: in vivo; details: injected once; compared with untreated or saline injected controls
Experimental: In another test, both Azetomicin I and Azetomicin II, were injected once into chicks infected with Rous sarcoma virus. The development of visible tumors was decreased by over 80% as compared with untreated or saline injected controls.

[2] = test system: Bacillus subtilis, Staphylococcus aureus and Staphylococcus albus; assay: Inhibition of bacterial growth (cross section of gram-positive and gram-negative bacteria); type: cell-based
P388 leukemia = P388 leukemia in mice, treatment QD at days 1-9 (National Cancer Institute screen); type: in vivo; details: for 5 ILS* (increased life span) / 60 DAY "CURES" / SURVIAL TIME MEDIAN: QD days 1-9, P388 mice; for SURVIAL TIME MEDIAN: controls 10 days
Source text: as §1
P 388 LEUKEMIA : QD AT DAYS 1-9 TREATMENT

[3] = Toxicity per mg compared with Actinomicin D
[4] = Storage stability in aqueous solution; type: physicochemical; details: 0°-25° C, pH range of 5-8, maintained in the dark
Experimental: The major products of interest were determined to be Azetomicin I and Azetomycin II. They were stable after storage at 0°-25° C in aqueous solution in the pH range of 5-8 for at least 5 days when maintained in the dark.

[5] = schedule day 12, data of Southern Research Institute

O=c1[nH]cc(F)c(=O)[nH]1 [FLUOROURACIL]
"CURES" (Number/Total) ([1]; schedule days 12,16,20,24): 0/10
REGRESSION 50+%-PARTIAL (Number/Total) ([1]; schedule days 12,16,20,24): 8/10
REGRESSION COMPLETE (Number/Total) ([1]; schedule days 12,16,20,24): 5/10

S=c1nc[nH]c2nc[nH]c12 [MERCAPTOPURINE]
"CURES" (Number/Total) ([1]; schedule days 12-22): 0/10
REGRESSION 50+%-PARTIAL (Number/Total) ([1]; schedule days 12-22): 9/10
REGRESSION COMPLETE (Number/Total) ([1]; schedule days 12-22): 6/10

COc1cccc2c1C(=O)c1c(O)c3c(c(O)c1C2=O)C[C@@](O)(C(=O)CO)C[C@@H]3O[C@H]1C[C@H](N)[C@H](O)[C@H](C)O1 [ADRIAMYCIN]
"CURES" (Number/Total) [1, 5]: 0/8
REGRESSION 50+%-PARTIAL (Number/Total) [1, 5]: 7/8
REGRESSION COMPLETE (Number/Total) [1, 5]: 7/8

L-ASPARAGINASE
"CURES" (Number/Total) [1, 5]: 0/10
REGRESSION 50+%-PARTIAL (Number/Total) [1, 5]: 0/10
REGRESSION COMPLETE (Number/Total) [1, 5]: 0/10

N[C@@H](Cc1ccc(N(CCCl)CCCl)cc1)C(=O)O [L-SARCOLYSIN]
"CURES" (Number/Total) [1, 5]: 4/8
REGRESSION 50+%-PARTIAL (Number/Total) [1, 5]: 8/8
REGRESSION COMPLETE (Number/Total) [1, 5]: 7/8

MITHRAMYCIN
"CURES" (Number/Total) [1, 5]: 0/7
REGRESSION 50+%-PARTIAL (Number/Total) [1, 5]: 0/7
REGRESSION COMPLETE (Number/Total) [1, 5]: 0/7

CN(C)/N=N/c1[nH]cnc1C(N)=O [DTIC]
"CURES" (Number/Total) [1, 5]: 0/10
REGRESSION 50+%-PARTIAL (Number/Total) [1, 5]: 0/10
REGRESSION COMPLETE (Number/Total) [1, 5]: 0/10

COc1cccc2c1C(=O)c1c(O)c3c(c(O)c1C2=O)C[C@@](O)(C(C)=O)C[C@@H]3O[C@H]1C[C@H](N)[C@H](O)[C@H](C)O1 [DAUNOMYCIN]
"CURES" (Number/Total) ([1]; schedule days 12-17): 0/12
REGRESSION 50+%-PARTIAL (Number/Total) ([1]; schedule days 12-17): 9/12
REGRESSION COMPLETE (Number/Total) ([1]; schedule days 12-17): 3/12

CNNCc1ccc(C(=O)NC(C)C)cc1 [PROCARBAZINE]
"CURES" (Number/Total) ([1]; schedule days 12-20): 0/10
REGRESSION 50+%-PARTIAL (Number/Total) ([1]; schedule days 12-20): 0/10
REGRESSION COMPLETE (Number/Total) ([1]; schedule days 12-20): 0/10

Cc1c2oc3c(C)ccc(C(=O)NC4C(=O)NC(C(C)C)C(=O)N5CCC5C(=O)N(C)CC(=O)N(C)C(C(C)C)C(=O)OC4C)c3nc-2c(C(=O)NC2C(=O)NC(C(C)C)C(=O)N3CCC3C(=O)N(C)CC(=O)N(C)C(C(C)C)C(=O)OC2C)c(N)c1=O (centres unmarked) [AZETOMICIN-II, Azetomicin II] (I: TV[Aze][Sar][NMeV] / II: TV[Aze][Sar][NMeV]; ester I:1-I:C, II:1-II:C; linker I:N-II:N via Actinocin(9to1); configuration not given here)
5 ILS* (increased life span) (ADVANCED P388 LEUKEMIA): 150%
60 DAY "CURES" (ADVANCED P388 LEUKEMIA): 0
SURVIAL TIME MEDIAN (ADVANCED P388 LEUKEMIA; controls 10 days): 25 days
decrease of development of visible tumors (Rous sarcoma virus): over 80%
activity against bacterial growth relative to Actinomicin D [2]: 50%
5 ILS* (increased life span) (P388 leukemia; 0.05 Mg/Kg/Inj.): 125%
60 DAY "CURES" (P388 leukemia; 0.05 Mg/Kg/Inj.): 0%
SURVIAL TIME MEDIAN (P388 leukemia; 0.05 Mg/Kg/Inj.): 22.5 days
5 ILS* (increased life span) (P388 leukemia; 0.1 Mg/Kg/Inj.): 130%
60 DAY "CURES" (P388 leukemia; 0.1 Mg/Kg/Inj.): 12%
SURVIAL TIME MEDIAN (P388 leukemia; 0.1 Mg/Kg/Inj.): 23 days
activity compared with Dactinomycin (summary of Table I) (P388 leukemia; P388 leukemia mice, Table I): roughly comparable in activity to Dactinomycin
toxicity/mg. compared with Actinomicin D [3]: substantially less toxic/mg.
time stable after storage in aqueous solution [4]: at least 5 days

Nc1ccn([C@@H]2O[C@H](CO)[C@@H](O)[C@@H]2O)c(=O)n1 [ARA-C]
"CURES" (Number/Total) ([1]; schedule days 12,12,20(q3h)): 0/10
REGRESSION 50+%-PARTIAL (Number/Total) ([1]; schedule days 12,12,20(q3h)): 7/10
REGRESSION COMPLETE (Number/Total) ([1]; schedule days 12,12,20(q3h)): 3/10

C[C@]12C=CC(=O)C=C1CC[C@@H]1[C@@H]2C(=O)C[C@@]2(C)[C@H]1CC[C@]2(O)C(=O)CO [PREDNISONE]
"CURES" (Number/Total) ([1]; schedule days 12,16,20): 0/10
REGRESSION 50+%-PARTIAL (Number/Total) ([1]; schedule days 12,16,20): 0/10
REGRESSION COMPLETE (Number/Total) ([1]; schedule days 12,16,20): 0/10
